The text below walks through data of patent US10174011B2, “Heterocyclic compounds, process for preparation of the same and use thereof” (SHANGHAI INSTITUTE OF MATERIA MEDICA, CHINESE ACADEMY OF …, priority 2014, dated 2019).

The target of assay [1] is human recombinant D2 receptor (Homo sapiens (Human), UniProt P14416). The assay is described as follows: D2 receptor antagonism activity test (inhibition of dopamine-induced decrease of cAMP production, LANCE cAMP 384 Kit). The conditions noted are these: read-out: D2 receptor antagonism (IC50, mol/L), HEK293 cells expressing human recombinant D2 receptor, 0.1 nM-10000 nM. Background: Changes in cAMP serve as a functional read-out for many G protein-coupled receptors.

Assay [2] relates to PCP-induced hyperactivity in mice. The assay is described as follows: In vivo efficacy test (PCP-induced high locomotor activity in mice). Conditions: male ICR mice, oral administration 45 minutes before PCP 7 mg/kg i.p.; dose significantly reducing PCP-induced hyperactivity vs model group. The protocol:
5) In Vivo Efficacy Test (PCP-Induced High Locomotor Activity in Mice)
PCP solution was prepared in a suitable concentration for 7 mg/kg dosage with saline. […] Male ICR mice (18-22 g) were used as test animals. All the test mice were randomly divided into vehicle control group, model control group, positive control group, and treatment group(8 mice per group). Mice of each group were orally administered test compounds or vehicle. After 45 minutes PCP solution was administered (7 mg/kg) through intraperitoneal injection. The mice track after drug or saline administration was recorded and analyzed by the spontaneous, open-field video analysis system. […] The mice track was recorded and analyzed by the spontaneous, open-field video analysis system. The total distance in each group was calculate and expressed as mean+SD and statistical evaluation was performed by one way ANOVA.

The target in assay [3] is human recombinant 5-HT1A receptor (Homo sapiens (Human), UniProt P08908). Kind of assay: 5-HT1A receptor agonism activity test (inhibition of cAMP production, LANCE cAMP 384 Kit). Conditions: HEK293 cells expressing human recombinant 5-HT1A receptor; test concentration 0.1 nM-10000 nM; read-out: 5-HT1A receptor agonism (EC50, mol/L). It is filed as cell-based. The source says:
Pharmacological Test 1) 5-HT1A Receptor Agonism Activity Test

Assay [4] addresses human recombinant 5-HT2A receptor (Homo sapiens (Human), UniProt P28223). The assay is described as follows: 5-HT2A receptor antagonism activity test (FLIPR Calcium 5 Assay Kit). Conditions: read-out: 5-HT2A receptor antagonism (IC50, mol/L).
[5] abbreviates: CHO-K1 cells expressing human recombinant 5-HT2A receptor, α-methyl-5-hydroxytryptamine 300 nM, 0.1 nM-10000 nM.

Where two headings read alike, the source gives them in different places.

Sequence of human recombinant 5-HT1A receptor (P08908 whole entry): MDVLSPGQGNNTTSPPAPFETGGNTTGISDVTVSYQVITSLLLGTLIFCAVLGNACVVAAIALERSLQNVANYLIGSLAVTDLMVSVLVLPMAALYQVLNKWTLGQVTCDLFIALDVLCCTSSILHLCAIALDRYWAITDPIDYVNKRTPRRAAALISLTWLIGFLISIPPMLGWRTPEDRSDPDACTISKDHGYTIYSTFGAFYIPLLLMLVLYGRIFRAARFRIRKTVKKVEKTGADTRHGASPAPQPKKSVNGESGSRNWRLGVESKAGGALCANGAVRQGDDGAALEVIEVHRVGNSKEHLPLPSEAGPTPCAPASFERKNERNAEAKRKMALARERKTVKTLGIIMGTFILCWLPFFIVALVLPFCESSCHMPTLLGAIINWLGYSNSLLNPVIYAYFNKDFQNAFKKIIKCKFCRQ
Sequence of human recombinant D2 receptor (P14416 whole entry): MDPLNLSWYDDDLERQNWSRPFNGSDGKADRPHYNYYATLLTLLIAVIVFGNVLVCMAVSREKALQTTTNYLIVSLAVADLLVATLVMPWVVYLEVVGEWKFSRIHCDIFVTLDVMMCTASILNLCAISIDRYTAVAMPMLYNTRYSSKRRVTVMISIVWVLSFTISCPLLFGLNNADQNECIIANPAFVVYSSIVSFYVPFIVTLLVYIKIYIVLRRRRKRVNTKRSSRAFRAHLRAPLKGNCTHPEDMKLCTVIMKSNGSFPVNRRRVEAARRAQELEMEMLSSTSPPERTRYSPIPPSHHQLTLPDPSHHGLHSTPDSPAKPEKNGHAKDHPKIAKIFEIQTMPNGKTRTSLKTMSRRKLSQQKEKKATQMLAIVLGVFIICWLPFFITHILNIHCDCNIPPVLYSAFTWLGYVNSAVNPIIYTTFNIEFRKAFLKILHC
Sequence of human recombinant 5-HT2A receptor (P28223 whole entry): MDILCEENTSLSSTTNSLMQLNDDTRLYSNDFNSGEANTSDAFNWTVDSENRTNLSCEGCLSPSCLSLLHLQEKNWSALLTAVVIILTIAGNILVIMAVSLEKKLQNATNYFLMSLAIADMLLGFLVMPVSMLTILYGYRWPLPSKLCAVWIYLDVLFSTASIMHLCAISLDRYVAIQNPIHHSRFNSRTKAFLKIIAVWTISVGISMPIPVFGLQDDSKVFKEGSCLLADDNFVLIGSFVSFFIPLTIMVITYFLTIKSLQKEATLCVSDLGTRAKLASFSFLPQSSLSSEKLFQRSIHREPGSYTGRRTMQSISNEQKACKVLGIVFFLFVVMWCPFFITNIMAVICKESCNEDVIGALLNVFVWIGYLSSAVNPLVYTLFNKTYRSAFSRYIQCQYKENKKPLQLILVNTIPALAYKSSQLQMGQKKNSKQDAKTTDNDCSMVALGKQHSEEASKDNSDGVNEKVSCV

On to `Cl.O=c1ccc2ccc(CCN3CCN(c4cccc5sc(F)cc45)CC3)cc2[nH]1` [Compound of example 57, 7-(2-(4-(2-fluorobenzo[b]thiophen-4-yl)piperazin-1-yl)ethyl)quinolin-2(1H)-one hydrochloride], for which the IC50 in assay [1] is 8.4 nM. The “Effective dose” value in assay [2] is reported as 1 mg/kg.

`O=C1Cc2cc(CCN3CCN(c4cccc5sc(F)cc45)CC3)ccc2N1` [Compound of example 79, 5-(2-(4-(2-fluorobenzo[b]thiophen-4-yl)piperazin-1-yl)ethyl)indolin-2-one]: the EC50 in assay [3] came to 0.77 nM. Also, the IC50 in assay [4] stood at 16.8 nM; in assay [1], 3.87 nM. Further, the “Effective dose” value in assay [2] was 1 mg/kg.

Regarding `O=c1[nH]c2ccc(CCN3CCN(c4cccc5sc(F)cc45)CC3)cc2[nH]1` [Compound of example 77, 5-(2-(4-(2-fluorobenzo[b]thiophen-4-yl)piperazin-1-yl)ethyl)-1H-benzo[d]imidazol-2(3H)-one], the EC50 in assay [3] was found to be 4.8 nM. The IC50 came to 157 nM in assay [4] (setting [5]) and 6.91 nM in assay [1]. Besides, in assay [2], the “Effective dose” value turned out to be 3 mg/kg.

For `Cc1nc2ccc(CCN3CCN(c4cccc5sccc45)CC3)cc2c(=O)[nH]1` [Compound of example 80, 6-(2-(4-(benzo[b]thiophen-4-yl)piperazin-1-yl)ethyl)-2-methylquinazolin-4(3H)-one], the EC50 in assay [3] came out at 1.74 nM. Also, the IC50 amounted to 11.9 nM in assay [4] (setting [5]) and 25.1 nM in assay [1]. For the same compound, the “Effective dose” value in assay [2] is on record as 1 mg/kg.

With `Cc1nc2n(c(=O)c1CCN1CCN(c3cccc4sc(F)cc34)CC1)CCCC2O.Cl` (stereo not shown) [Compound of example 131, 3-(2-(4-(2-fluorobenzo[b]thiophen-4-yl)piperazin-1-yl)ethyl)-9-hydroxy-2-methyl-6,7,8,9-tetrahydro-4H-pyrido[1,2-a]pyrimidin-4-one hydrochloride], the EC50 in assay [3] is 26 nM. In assay [4], the IC50 amounted to 51.3 nM. In addition, in assay [2], the “Effective dose” value is given as 3 mg/kg.

As for `O=C1CCc2ccc(CCN3CCN(c4cc(F)cc5sccc45)CC3)cc2N1` [Compound of example 85, 7-(2-(4-(6-fluorobenzo[b]thiophen-4-yl)piperazin-1-yl)ethyl)-3,4-dihydroquinolin-2(1H)-one], the EC50 in assay [3] amounted to 1.38 nM. For the same compound, the IC50 in assay [4] amounted to 77.5 nM; in assay [1], 5.32 nM. Further, the “Effective dose” value in assay [2] is listed as 1 mg/kg.

Regarding `Cl.S=C1CCc2ccc(CCN3CCN(c4cccc5sccc45)CC3)cc2N1` [Compound of example 133, 7-(2-(4-(benzo[b]thiophen-4-yl)piperazin-1-yl)ethyl)-3,4-dihydroquinoline-2(1H)-thione hydrochloride], the IC50 in assay [1] amounted to 10.9 nM. Besides, the “Effective dose” value in assay [2] came out at 1 mg/kg.

As to `Cl.Cn1c(=O)n(C)c2cc(CCN3CCN(c4cccc5sccc45)CC3)ccc21` [Compound of example 87, 5-(2-(4-(benzo[b]thiophen-4-yl)piperazin-1-yl)ethyl)-1,3-dimethyl-1H-benzo[d]imidazol-2(3H)-one hydrochloride], the EC50 in assay [3] is 4.5 nM. For the same compound, the IC50 in assay [4] (setting [5]) worked out at 88 nM. In addition, the “Effective dose” value in assay [2] is 1 mg/kg.

With `O=C1COc2c(F)cc(CCCCN3CCN(c4cccc5sccc45)CC3)cc2N1` [Compound of example 72, 6-(4-(4-(benzo[b]thiophen-4-yl)piperazin-1-yl)butyl)-8-fluoro-2H-benzo[b][1,4]oxazin-3(4H)-one], in assay [3], the EC50 was 2.53 nM. Also, the values for the IC50 in assay [4] (setting [5]) and in assay [1] were 951 nM and 13.2 nM, respectively. In addition, in assay [2], the “Effective dose” value is 3 mg/kg.

Consider `O=C1CCc2cc(CCN3CCN(c4cccc5sc(F)cc45)CC3)ccc2N1` [Compound of example 65, 6-(2-(4-(2-fluorobenzo[b]thiophen-4-yl)piperazin-1-yl)ethyl)-3,4-dihydroquinolin-2(1H)-one], for which, in assay [3], the EC50 was 1.25 nM. The IC50 in assay [4] (setting [5]) stood at 40.3 nM; in assay [1], 7.76 nM. The “Effective dose” value in assay [2] turned out to be 3 mg/kg.

As for `O=C1Cc2cc(CCN3CCC(c4cccc5sccc45)CC3)ccc2N1` [Compound of example 82, 5-(2-(4-(benzo[b]thiophen-4-yl)piperidin-1-yl)ethyl)indolin-2-one], the EC50 in assay [3] was determined as 2.8 nM. For the same compound, the values for the IC50 in assay [4] (setting [5]) and in assay [1] were 11.5 nM and 10.9 nM, respectively. In addition, the “Effective dose” value in assay [2] came to 1 mg/kg.

For `O=C1CSc2ccc(CCN3CCN(c4cccc5sccc45)CC3)cc2N1` [Compound of example 31, 6-(2-(4-(benzo[b]thiophen-4-yl)piperazin-1-yl)ethyl)-2H-benzo[b][1,4]thiazin-3(4H)-one], the EC50 in assay [3] amounted to 0.68 nM. In addition, the IC50 in assay [4] (setting [5]) was determined as 52.2 nM; in assay [1], 92.7 nM. Further, the “Effective dose” value in assay [2] is 1 mg/kg.

For the compound `Cn1c(=O)[nH]c2cc(CCN3CCN(c4cccc5sccc45)CC3)ccc21` [Compound of example 88, 5-(2-(4-(benzo[b]thiophen-4-yl)piperazin-1-yl)ethyl)-1-methyl-1H-benzo[d]imidazol-2(3H)-one], the EC50 in assay [3] stood at 6.31 nM. In addition, the IC50 in assay [4] (setting [5]) stood at 356 nM; in assay [1], 215 nM. In addition, the “Effective dose” value in assay [2] is 1 mg/kg.

For the compound `O=C1CCc2cc(CCCCN3CCN(c4cccc5sc(F)cc45)CC3)ccc2N1` [Compound of example 74, 6-(4-(4-(2-fluorobenzo[b]thiophen-4-yl)piperazin-1-yl)butyl)-3,4-dihydroquinolin-2(1H)-one], in assay [3], the EC50 stood at 20.8 nM. The IC50 in assay [4] (setting [5]) is 874 nM; in assay [1] it was 1.06 nM. Also, the “Effective dose” value in assay [2] is 3 mg/kg.

With `O=C1COc2ccc(CCCCN3CCN(c4cccc5sccc45)CC3)cc2N1` [Compound of example 137, 6-(4-(4-(benzo[b]thiophen-4-yl)piperazin-1-yl)butyl)-2H-benzo[b][1,4]oxazin-3(4H)-one], in assay [3], the EC50 was 1.81 nM. Besides, the IC50 in assay [4] (setting [5]) came to 711 nM; in assay [1] it was 30.2 nM. In assay [2], the “Effective dose” value was 3 mg/kg.

As to `O=C1Cc2cc(CCCCN3CCN(c4cccc5sccc45)CC3)ccc2N1` [Compound of example 112, 5-(4-(4-(benzo[b]thiophen-4-yl)piperazin-1-yl)butyl)indolin-2-one], the EC50 in assay [3] amounted to 34.6 nM. Further, the IC50 in assay [4] (setting [5]) came to 257 nM; in assay [1], 28.1 nM. Moreover, the “Effective dose” value in assay [2] came out at 1 mg/kg.

Consider `O=C1COc2ccc(CCN3CCN(c4cc(F)cc5sccc45)CC3)cc2N1` [Compound of example 78, 6-(2-(4-(6-fluorobenzo[b]thiophen-4-yl)piperazin-1-yl)ethyl)-2H-benzo[b][1,4]oxazin-3(4H)-one], for which the EC50 in assay [3] turned out to be 0.599 nM. Further, the IC50 was 328 nM in assay [4] (setting [5]) and 45.6 nM in assay [1]. The “Effective dose” value in assay [2] stood at 3 mg/kg.

Take `O=c1[nH]c2ccc(CCN3CCN(c4cccc5sccc45)CC3)cc2o1` [Compound of example 68, 6-(2-(4-(benzo[b]thiophen-4-yl)piperazin-1-yl)ethyl)benzo[d]oxazol-2(3H)-one]: the IC50 in assay [4] was found to be 4.82 nM. In addition, in assay [2], the “Effective dose” value was found to be 0.3 mg/kg.

With `COc1cc2c(N3CCN(CCc4ccc5c(c4)CCC(=O)N5)CC3)cccc2s1` [Compound of example 89, 6-(2-(4-(2-methoxybenzo[b]thiophen-4-yl)piperazin-1-yl)ethyl)-3,4-dihydroquinolin-2(1H)-one], in assay [3], the EC50 stood at 1.29 nM. Besides, the IC50 in assay [4] (setting [5]) was found to be 1050 nM; in assay [1], 8.06 nM. The “Effective dose” value in assay [2] is given as 1 mg/kg.

On to `Cl.O=S1(=O)NCCc2ccc(CCN3CCN(c4cccc5sccc45)CC3)cc21` [Compound of example 81, 7-(2-(4-(benzo[b]thiophen-4-yl)piperazin-1-yl)ethyl)-1,1-dioxide-3,4-dihydro-2H-benzo[e][1,2]thiazine hydrochloride], for which, in assay [3], the EC50 is 1.05 nM. The IC50 in assay [4] (setting [5]) came out at 1.67 nM; in assay [1], 14.3 nM. For the same compound, the “Effective dose” value in assay [2] is recorded as 1 mg/kg.

For the compound `Cl.O=C1COc2ccc(CCN3CCN(c4cccc5sccc45)CC3)cc2N1` [Compound of example 30, 6-(2-(4-(benzo[b]thiophen-4-yl)piperazin-1-yl)ethyl)-2H-benzo[b][1,4]oxazin-3(4H)-one hydrochloride], the IC50 in assay [4] was determined as 42.1 nM; in assay [1] it was 34.2 nM. Besides, the “Effective dose” value in assay [2] is recorded as 0.3 mg/kg.

Take `Cl.O=C1CCc2cc(CCN3CCN(c4cccc5sccc45)CC3)ccc2N1` [Compound of example 47, 6-(2-(4-(benzo[b]thiophen-4-yl)piperazin-1-yl)ethyl)-3,4-dihydroquinolin-2(1H)-one hydrochloride]: the “Effective dose” value in assay [2] came out at 0.3 mg/kg.
